Target: T1, human α7 nAChR (Homo sapiens, UniProt P36544)
T1 construct: host or cells: GH4C1 cells (pituitary tumor, immortalized cell line)
Test: α7 nAChR FLIPR (Fluorometric Imaging Plate Reader) Ca2+ assay, agonist EC50
Assay type: cell-based
Details: alpha 7 assay described in the Examples
In short: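 GH4C1 cells stably expressing human α7 nAChR, loaded with 2 μM Fluo-4 for 45–60 min at 37 °C in HEPES buffer pH 7.3 with 2 mM CaCl2 and 2.5 mM probenecid. Peak calcium fluorescence (ex 488, em 510–580 nm) after compound addition fitted for agonist EC50, reported as pEC50.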

T1 sequence (P36544 23-502): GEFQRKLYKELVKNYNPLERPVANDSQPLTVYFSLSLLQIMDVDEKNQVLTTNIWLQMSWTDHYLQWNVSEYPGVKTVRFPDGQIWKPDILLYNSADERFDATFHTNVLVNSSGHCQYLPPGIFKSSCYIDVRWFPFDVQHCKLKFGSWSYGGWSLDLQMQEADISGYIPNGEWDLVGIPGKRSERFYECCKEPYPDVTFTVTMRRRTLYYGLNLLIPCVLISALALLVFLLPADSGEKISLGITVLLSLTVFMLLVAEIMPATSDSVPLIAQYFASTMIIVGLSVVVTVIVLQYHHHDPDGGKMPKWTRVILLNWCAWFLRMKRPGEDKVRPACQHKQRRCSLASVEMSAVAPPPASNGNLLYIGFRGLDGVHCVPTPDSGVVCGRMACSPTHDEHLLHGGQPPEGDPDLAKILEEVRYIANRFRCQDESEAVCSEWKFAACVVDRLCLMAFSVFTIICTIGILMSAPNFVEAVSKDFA

O=C(Nc1ccc(-c2nnc(NCCCN3CCCC(F)(F)C3)o2)cc1)c1ccccc1F [N-[4-(5-{[3-(3,3-difluoro-1-piperidinyl)propyl]amino}-1,3,4-oxadiazol-2-yl)phenyl]-2-fluorobenzamide]
activity in the alpha 7 assay: not found to have activity

CCN(CC)CCCNc1nnc(-c2ccc(NC(=O)c3ccc(OC)cc3)cc2)o1 [N-[4-(5-{[3-(Diethylamino)propyl]amino}-1,3,4-oxadiazol-2-yl)phenyl]-4-(methyloxy)benzamide]
activity in the alpha 7 assay: not found to have activity

CCCN(CCC)CCCNc1nnc(-c2ccc(NC(=O)c3ccccc3F)cc2)o1 [N-[4-(5-{[3-(dipropylamino)propyl]amino}-1,3,4-oxadiazol-2-yl)phenyl]-2-fluorobenzamide]
activity in the alpha 7 assay: not found to have activity
